For 15 molecules, TGI and GI50 results are on record in PubChem BioAssay (NCI).

Structures are written as SMILES.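 Following 48 hours of exposure in 96-well plates, responses at five concentrations were used to interpolate endpoints linearly. At the GI50, growth is halved. Definition used: TGI = concentration required for complete inhibition of growth.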

Among the test systems are NCI-H23 lung; MALME-3M melanoma; OVCAR-8 ovarian; RXF 393 renal; UACC-257 melanoma; K-562 leukemia; 786-0 renal; NCI-H460 lung.
What all share (assay): NCI anticancer screen, dose series, 48 h

Regarding `CS(=O)(=O)OC1CCC2(C#N)CCC1C2=O` (centres undefined), the TGI in the experiment on NCI-H23 lung, with MALME-3M melanoma, in the experiment on OVCAR-8 ovarian, in the experiment with RXF 393 renal, in the experiment with UACC-257 melanoma and with K-562 leukemia was greater than 100 µM in each case. For the same molecule, the TGI in the experiment with 786-0 renal and in the experiment with NCI-H460 lung was greater than 100 µM throughout.

As to `O=[N+]([O-])c1ccc(C[P+](c2ccccc2)(c2ccccc2)c2ccccc2)cc1`, the TGI is greater than 100 µM in the experiment with NCI-H23 lung; greater than 100 µM in the experiment with MALME-3M melanoma; greater than 100 µM with OVCAR-8 ovarian; greater than 100 µM with RXF 393 renal; 47.3 µM in the experiment on UACC-257 melanoma; greater than 100 µM in the experiment with K-562 leukemia. In addition, the TGI in the experiment on 786-0 renal and in the experiment on NCI-H460 lung was greater than 100 µM each time.

As for `CC1=C(C(=O)Nc2cc(=O)n(C)c(=O)n2C)C(c2ccco2)C(C(=O)Nc2cc(=O)n(C)c(=O)n2C)=C(C)N1`, the TGI in the experiment with NCI-H23 lung, in the experiment on MALME-3M melanoma, with OVCAR-8 ovarian, in the experiment on RXF 393 renal, with UACC-257 melanoma and with K-562 leukemia was greater than 100 µM each time. In addition, the TGI in the experiment on 786-0 renal and in the experiment on NCI-H460 lung was greater than 100 µM in each case.

Consider `CC1(C)O[C@H]2[C@H](O)C[C@](O)(CO)C[C@H]2O1`, for which the TGI in the experiment on NCI-H23 lung, in the experiment on MALME-3M melanoma, in the experiment on OVCAR-8 ovarian, in the experiment with RXF 393 renal, in the experiment with UACC-257 melanoma and in the experiment with K-562 leukemia was greater than 100 µM throughout. The TGI in the experiment on 786-0 renal and in the experiment with NCI-H460 lung was greater than 100 µM in each case.

Consider `CCc1ccccc1NC(=O)C1=C(C)NC(C)=C(C(=O)Nc2ccccc2CC)C1c1ccccc1Cl`, for which the TGI with NCI-H23 lung, in the experiment with MALME-3M melanoma, with OVCAR-8 ovarian, in the experiment on RXF 393 renal, with UACC-257 melanoma and in the experiment with K-562 leukemia was greater than 100 µM each time. For the same molecule, the TGI in the experiment on 786-0 renal and in the experiment on NCI-H460 lung was greater than 100 µM throughout.

Regarding `Cc1c2ccncc2c(C)c2c1[nH]c1ccc(OC(C)C)cc12`, the TGI was 2.93 µM in the experiment with NCI-H23 lung; 3.16 µM in the experiment on MALME-3M melanoma; 2.28 µM in the experiment with OVCAR-8 ovarian; 2.76 µM in the experiment with RXF 393 renal; 3.3 µM in the experiment with UACC-257 melanoma; 4.4 µM in the experiment on K-562 leukemia. In addition, the TGI in the experiment with 786-0 renal worked out at 2.44 µM; with NCI-H460 lung, 2.25 µM.

In the case of `O=C(O)CCC(=O)N1c2ccccc2CC1c1c[nH]c2ccccc12` (centres undefined), the TGI in the experiment with NCI-H23 lung, in the experiment with MALME-3M melanoma, in the experiment with OVCAR-8 ovarian, with RXF 393 renal, with UACC-257 melanoma and with K-562 leukemia was greater than 100 µM in each case. Moreover, the TGI in the experiment with 786-0 renal and with NCI-H460 lung was greater than 100 µM in each case.

Take `CC1=C(c2ccccc2)C(c2ccccc2)=C(c2ccccc2)C2(c3ccccc3)C(=O)C(C)CN12` (centres undefined): the TGI is greater than 100 µM with MALME-3M melanoma; 59.2 µM with OVCAR-8 ovarian; 63.5 µM with RXF 393 renal; greater than 100 µM in the experiment on UACC-257 melanoma; greater than 100 µM in the experiment on 786-0 renal; greater than 100 µM in the experiment with NCI-H460 lung.

Regarding `O=C1N(C2CCCCC2)CC12CCCCC2`, the TGI in the experiment with NCI-H23 lung, in the experiment on MALME-3M melanoma, with OVCAR-8 ovarian, in the experiment on RXF 393 renal, with K-562 leukemia and in the experiment with 786-0 renal was greater than 100 µM throughout. This molecule showed a TGI in the experiment on NCI-H460 lung greater than 100 µM.

On to `Cc1nnn[n-]1.N.N.N.N.N.[Cl-].[Co+3]`, for which the GI50 in the experiment on NCI-H23 lung, in the experiment with MALME-3M melanoma, in the experiment on OVCAR-8 ovarian, in the experiment on RXF 393 renal, in the experiment with UACC-257 melanoma and in the experiment with K-562 leukemia was greater than 100 µM in each case. Further, the GI50 in the experiment with 786-0 renal and in the experiment on NCI-H460 lung was greater than 100 µM throughout. The TGI with NCI-H23 lung, with MALME-3M melanoma, with OVCAR-8 ovarian, with RXF 393 renal, in the experiment with UACC-257 melanoma and with K-562 leukemia was greater than 100 µM in each case. The TGI in the experiment with 786-0 renal and in the experiment with NCI-H460 lung was greater than 100 µM throughout.

In the case of `O=C(O)C1=C(O)C(C(=O)O)C23CCCCCCCCCCC12C(C(=O)O)C(O)=C3C(=O)O` (centres undefined), the TGI in the experiment on NCI-H23 lung, with MALME-3M melanoma, with OVCAR-8 ovarian, in the experiment on RXF 393 renal, in the experiment with UACC-257 melanoma and in the experiment on K-562 leukemia was greater than 100 µM throughout. Further, the TGI in the experiment on 786-0 renal and with NCI-H460 lung was greater than 100 µM throughout.

As for `COc1cc(Br)c(C=Nc2cccc3cc(OC)c(OC)cc23)cc1OC`, the TGI in the experiment on NCI-H23 lung was greater than 100 µM; with MALME-3M melanoma it was greater than 100 µM; in the experiment with OVCAR-8 ovarian it was greater than 100 µM; in the experiment on RXF 393 renal it was 50.3 µM; in the experiment with UACC-257 melanoma, greater than 100 µM; in the experiment on K-562 leukemia it was greater than 100 µM. Besides, the TGI in the experiment on 786-0 renal and with NCI-H460 lung was greater than 100 µM each time.

Take `O/N=C1/C(=C/c2ccc3c(c2)OCO3)CCCC1C(NO)c1ccc2c(c1)OCO2` (centres undefined): the TGI in the experiment on NCI-H23 lung is 72.5 µM; in the experiment with MALME-3M melanoma it was 48.2 µM; in the experiment with OVCAR-8 ovarian, 67.1 µM; in the experiment on RXF 393 renal, 55 µM; with UACC-257 melanoma it was 33.9 µM; in the experiment with K-562 leukemia it was 71 µM. Further, the values for the TGI in the experiment with 786-0 renal and in the experiment on NCI-H460 lung were 96.3 µM and 71.1 µM, respectively.

On to `O=C(O)CCCSC(=O)Nc1ccc(N=Nc2ccccc2)cc1`, for which the TGI in the experiment with NCI-H23 lung, in the experiment on OVCAR-8 ovarian, in the experiment with RXF 393 renal, with UACC-257 melanoma, in the experiment with K-562 leukemia and in the experiment with 786-0 renal was greater than 100 µM throughout. The TGI in the experiment with NCI-H460 lung was greater than 100 µM.

Take `C=CCNC(=O)N(CCCCC(NC(C)=O)C(=O)NCc1ccccc1)Cc1ccccc1` (centres undefined): the TGI in the experiment on NCI-H23 lung, in the experiment on MALME-3M melanoma, with OVCAR-8 ovarian, in the experiment with RXF 393 renal, in the experiment with UACC-257 melanoma and in the experiment with K-562 leukemia was greater than 100 µM throughout. In addition, the TGI with 786-0 renal and in the experiment on NCI-H460 lung was greater than 100 µM in each case.
